Reference: BindingDB's records for doi:10.1021/jm9802158 (Upjohn, 1998)

Each compound was assayed against T1, Dimer of Gag-Pol polyprotein [489-587] (Human immunodeficiency virus 1, UniProt P12497) (assay: Protease Inhibition Assay). Conditions: pH 5; 22 °C.
T1 construct: 489-587
Excerpt: (§1) HIV-1 protease was purified and refolded from E. coli inclusion bodies. The substrate used spans the p17-p24 processing site (R-V-S-Q-N-Y-P-I-V-Q-N-K) and was derivatized with biotin and fluorescein isothiocyanate (FITC) at the amino and carboxy termini. In the presence of HIV-l protease, the substrate is rapidly cleaved into two parts. The biotinylated amino terminal fragment binds to the avidin beads while the FITC-containing carboxy1 terminal fragment is removed through the membrane. […] The bound fluorescence is obtained by processing on an IDEXX Screen Machine. Determination of Ki values with this assay requires analysis under conditions in which substrate concentration resides substantially below Km and the inhibitor concentrations greatly exceeds the Ki value and the enzyme concentration.

Q: Which Ki does the source give for CCCC1(CCC)CC(=O)C(C(c2cccc(NS(=O)(=O)c3cn(C)cn3)c2)C(C)(C)C)C(=O)O1 (stereo not given) [N-[3-{1-(5,6-Dihydro-4-hydroxy-2-oxo-6,6-dipropyl-2H-pyran-3-yl)-2,2-dimethylpropyl)phenyl]-1-methyl-1H-imidazole-4-sulfonamide] here?
A: 0.87 nM

Q: Which Ki does the source give for CCCC1(CCc2ccccc2)CC(=O)C(C(c2cccc(NS(=O)(=O)c3ccc(C(F)(F)F)cn3)c2)C(C)(C)C)C(=O)O1 (stereo not given) [N-(3-[1-(5,6-Dihydro-4-hydroxy-2-oxo-6-phenethyl-6-propyl-2H-pyran-3-yl)-2,2-dimethylpropyl]phenyl)-5-trifluoromethyl-2-pyridinesulfonamide] here?
A: 4.3 nM

Q: Which Ki does the source give for CCCC1(CCc2ccccc2)CC(=O)C(C(c2cccc(NS(=O)(=O)c3ccc(C#N)cn3)c2)C(C)(C)C)C(=O)O1 (stereo not given) [N-(3-[1-(5,6-Dihydro-4-hydroxy-2-oxo-6-phenethyl-6-propyl-2H-pyran-3-yl)-2,2-dimethylpropyl]phenyl)-5-cycano-2-pyridinesulfonamide] here?
A: 1.9 nM

Q: For CCC(c1cccc(NS(=O)(=O)c2cn(C)cn2)c1)C1C(=O)CC(CC(C)C)(CC(C)C)OC1=O (stereo not given) [N-(3-{1-[4-hydroxy-6,6-bis(2-methylpropyl)-2-oxo-5,6-dihydro-2H-pyran-3-yl]propyl}phenyl)-1-methyl-1H-imidazole-4-sulfonamide], which Ki is on record?
A: 3 nM

Q: For CCCC1(CCc2ccccc2)CC(=O)C(C(c2cccc(NS(=O)(=O)c3cn(C)cn3)c2)C2CC2)C(=O)O1 (stereo not given) [N-[3-[1-(5,6-Dihydro-4-hydroxy-2-oxo-6-phenethyl-6-propyl-2H-pyran-3-yl)cyclopropylmethyl]phenyl]-1-methyl-1H-imidazole-4-sulfonamide], which Ki is on record?
A: 0.71 nM

Q: Which Ki does the source give for CCCC1(CCc2ccccc2)CC(=O)C(C(c2cccc(NS(=O)(=O)c3ccc([N+](=O)[O-])cn3)c2)C(C)(C)C)C(=O)O1 (stereo not given) [N-(3-{1-[4-hydroxy-2-oxo-6-(2-phenylethyl)-6-propyl-5,6-dihydro-2H-pyran-3-yl]-2,2-dimethylpropyl}phenyl)-5-nitropyridine-2-sulfonamide] here?
A: 2.3 nM

Q: CCCC1(CCc2ccccc2)CC(=O)C(Cc2cccc(NS(=O)(=O)c3cn(C)cn3)c2)C(=O)O1 (stereo not given) [N-(3-[1-(5,6-Dihydro-4-hydroxy-2-oxo-6-phenethyl-6-propyl-2H-pyran-3-yl)methyl]phenyl)-1-methyl-1H-imidazole-4-sulfonamide] was tested. Which Ki did it give?
A: 13 nM

Q: Which Ki does the source give for CCCC1(CCc2ccc(F)cc2)CC(=O)C(C(CC)c2cccc(NS(=O)(=O)c3cn(C)cn3)c2)C(=O)O1 (stereo not given) [N-[3-{1-(5,6-Dihydro-4-hydroxy-2-oxo--6-(2-(4-fluorophenyl)ethyl)-6-propyl-2H-pyran-3-yl)propyl}phenyl]-1-methyl-1H-imidazole-4-sulfonamide] here?
A: 3 nM

Q: For CCCC1(CCC)CC(=O)C(C(CC)c2cccc(NS(=O)(=O)c3cn(C)cn3)c2)C(=O)O1 (stereo not given) [N-[3-[1-(5,6-Dihydro-4-hydroxy-2-oxo-6,6-dipropyl-2H-pyran-3-yl)propyl]phenyl]-1-methyl-1H-imidazolesulfonamide], which Ki is on record?
A: 1.8 nM

Q: With CCC(c1cccc(NS(=O)(=O)c2cn(C)cn2)c1)C1C(=O)CC2(OC1=O)C1CC3CC(C1)CC2C3 (stereo not given) [N-[3-(1-{4'-hydroxy-3',6'-dihydrospiro[adamantane-2,2'-pyran]-6'-one}propyl)phenyl]-1-methyl-1H-imidazole-4-sulfonamide] as the compound, how does the Ki read?
A: 23 nM

Q: CCC(c1cccc(NS(=O)(=O)c2cn(C)cn2)c1)C1C(=O)CC(COCCOCCOC)(COCCOCCOC)OC1=O (stereo not given) [N-[3-{1-(5,6-Dihydro-4-hydroxy-2-oxo--6,6-bis((2-(2-methoxyethoxy)ethoxy)methyl)-2H-pyran-3-yl)propyl}phenyl]-1-methyl-1H-imidazole-4-sulfonamide] was tested. Which Ki did it give?
A: 28 nM

Q: CCCC1(CCc2ccccc2)CC(=O)C(C(c2cccc(NS(=O)(=O)c3ccc(C#N)cc3)c2)C(C)(C)C)C(=O)O1 (stereo not given) [4-cyano-N-(3-{1-[4-hydroxy-2-oxo-6-(2-phenylethyl)-6-propyl-5,6-dihydro-2H-pyran-3-yl]-2,2-dimethylpropyl}phenyl)benzene-1-sulfonamide] was tested. Which Ki did it give?
A: 12 nM

Q: With CCCC1(CCc2ccccc2)CC(=O)C(C(CC)c2cccc(NS(=O)(=O)c3ccc(C#N)cc3)c2)C(=O)O1 (stereo not given) [4-cyano-N-(3-{1-[4-hydroxy-2-oxo-6-(2-phenylethyl)-6-propyl-5,6-dihydro-2H-pyran-3-yl]propyl}phenyl)benzene-1-sulfonamide] as the compound, how does the Ki read?
A: 8.2 nM

Q: For CCC(c1cccc(NS(=O)(=O)c2cn(C)cn2)c1)C1C(=O)CC(CCc2ccccc2)(CCc2ccccc2)OC1=O (stereo not given) [N-(3-{1-[4-hydroxy-2-oxo-6,6-bis(2-phenylethyl)-5,6-dihydro-2H-pyran-3-yl]propyl}phenyl)-1-methyl-1H-imidazole-4-sulfonamide], which Ki is on record?
A: 1 nM

Q: Which Ki does the source give for CCCC1(CCc2ccccc2)CC(=O)C(C(c2cccc(NS(=O)(=O)c3cn(C)cn3)c2)C(C)(C)C)C(=O)O1 (stereo not given) [N-[3-{1-(5,6-Dihydro-4-hydroxy-2-oxo-6-phenethyl-6-propyl-2H-pyran-3-yl)-2,2-dimethylpropyl)phenyl]-1-methyl-1H-imidazole-4-sulfonamide] here?
A: 1.2 nM

Q: For CCCC1(CCc2ccccc2)CC(=O)C(C(CC)c2cccc(NS(=O)(=O)CCC)c2)C(=O)O1 (stereo not given) [N-(3-{1-[4-hydroxy-2-oxo-6-(2-phenylethyl)-6-propyl-5,6-dihydro-2H-pyran-3-yl]propyl}phenyl)propane-1-sulfonamide], which Ki is on record?
A: > 1000 nM

Q: With CCC(c1cccc(NS(=O)(=O)c2cn(C)cn2)c1)C1C(=O)CC(CCC2CC2)(CCC2CC2)OC1=O (stereo not given) [N-(3-{1-[6,6-bis(2-cyclopropylethyl)-4-hydroxy-2-oxo-5,6-dihydro-2H-pyran-3-yl]propyl}phenyl)-1-methyl-1H-imidazole-4-sulfonamide] as the compound, how does the Ki read?
A: 1.7 nM

Q: How did the Ki turn out when CCCC1(CCC)CC(=O)C(C(c2cccc(NS(=O)(=O)c3cn(C)cn3)c2)C2CC2)C(=O)O1 (stereo not given) [N-[3-[1-(5,6-Dihydro-4-hydroxy-2-oxo-6,6-dipropyl-2H-pyran-3-yl)cyclopropylmethyl]phenyl]-1-methyl-1H-imidazolesulfonamide] was run?
A: 0.52 nM

Each compound was assayed against T2, Dimer of Gag-Pol polyprotein [489-587] (Human immunodeficiency virus 1, UniProt P04585) (assay: Protease Inhibition Assay). Conditions: pH 5; 22 °C.
T2 construct: 489-587
Excerpt: as §1

Q: For CCCC1(CCc2ccccc2)CC(=O)C(C(CC)c2cccc(NS(=O)(=O)c3ccc(C#N)cn3)c2)C(=O)O1 (stereo not given) [5-cyano-N-(3-{1-[4-hydroxy-2-oxo-6-(2-phenylethyl)-6-propyl-5,6-dihydro-2H-pyran-3-yl]propyl}phenyl)pyridine-2-sulfonamide], which Ki is on record?
A: 0.1 nM

Q: How did the Ki turn out when CCCC1(CCc2ccccc2)CC(=O)C(C(c2cccc(NS(=O)(=O)c3ccc(N)cn3)c2)C(C)(C)C)C(=O)O1 (stereo not given) [5-amino-N-(3-{1-[4-hydroxy-2-oxo-6-(2-phenylethyl)-6-propyl-5,6-dihydro-2H-pyran-3-yl]-2,2-dimethylpropyl}phenyl)pyridine-2-sulfonamide] was run?
A: 0.2 nM
